One assay concerns the target Melanocortin receptor 3 (Homo sapiens, UniProt P41968). In kind it is cell membranes, Membrane. The following applies: hek293. Note: in other assays of this panel Not Active means under 50% inhibition at 10 µM.
Another assay deals with Cannabinoid receptor 1 (Homo sapiens, UniProt P21554). In kind it is cell membranes, Chem-1, Membrane. The following applies: chem-1.
Assay [1] in a line: DRUGMATRIX: Nicotinic Acetylcholine radioligand binding (ligand: [125I] Epibatidine). In kind it is cell membranes, Membrane. The following applies: imr-32; Not Active = under 50% inhibition at 10 µM.
For assay [2], the target named is Sodium-dependent dopamine transporter (Homo sapiens, UniProt Q01959). As to the kind of experiment: DRUGMATRIX: Dopamine Transporter radioligand binding (ligand: [125I] RTI-55). In kind it is cell membranes, CHO-K1, Membrane. The following applies: Not Active = under 50% inhibition at 10 µM; for Ki: read-out: Ki.
Another assay addresses T1, B2 bradykinin receptor (Homo sapiens, UniProt P30411).
T1 sequence (P30411 whole entry): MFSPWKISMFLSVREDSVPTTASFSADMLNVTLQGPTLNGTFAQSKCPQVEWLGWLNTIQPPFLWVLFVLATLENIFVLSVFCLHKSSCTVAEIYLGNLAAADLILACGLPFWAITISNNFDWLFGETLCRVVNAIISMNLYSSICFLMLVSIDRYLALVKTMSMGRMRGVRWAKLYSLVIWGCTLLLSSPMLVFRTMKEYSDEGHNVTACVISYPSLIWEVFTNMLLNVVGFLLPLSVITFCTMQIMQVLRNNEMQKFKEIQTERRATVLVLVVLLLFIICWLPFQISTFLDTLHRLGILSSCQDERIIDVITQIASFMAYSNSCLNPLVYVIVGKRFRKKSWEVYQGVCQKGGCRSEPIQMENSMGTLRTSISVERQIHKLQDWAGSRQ
In kind it is cell membranes, Membrane. The following applies: chem-1.

The target of another assay is T2, Adenosine receptor A3 (Homo sapiens, UniProt P0DMS8).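 Note: radioligand binding assay with AB-MECA serving as the labeled ligand; in other assays of this panel Not Active means under 50% inhibition at 10 µM.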
T2 sequence (P0DMS8 whole entry): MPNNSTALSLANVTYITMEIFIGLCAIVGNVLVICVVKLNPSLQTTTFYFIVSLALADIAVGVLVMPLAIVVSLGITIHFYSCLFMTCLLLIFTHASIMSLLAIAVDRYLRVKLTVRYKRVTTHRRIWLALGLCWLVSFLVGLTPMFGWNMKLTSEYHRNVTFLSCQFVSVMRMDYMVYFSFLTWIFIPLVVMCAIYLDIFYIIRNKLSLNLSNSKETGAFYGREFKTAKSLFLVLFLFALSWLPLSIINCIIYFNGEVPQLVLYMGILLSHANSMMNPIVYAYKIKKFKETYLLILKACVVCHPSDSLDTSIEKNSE
In kind it is cell membranes, CHO-K1, Membrane. The following applies: for Ki: read-out: Ki.

The target of a further assay is Vasopressin V1a receptor (Homo sapiens, UniProt P37288). In kind it is cell membranes, Membrane. The following applies: hek293. Note: in other assays of this panel Not Active means under 50% inhibition at 10 µM.

Structures are written as SMILES.

Chain of Sodium-dependent dopamine transporter (Q01959 whole entry): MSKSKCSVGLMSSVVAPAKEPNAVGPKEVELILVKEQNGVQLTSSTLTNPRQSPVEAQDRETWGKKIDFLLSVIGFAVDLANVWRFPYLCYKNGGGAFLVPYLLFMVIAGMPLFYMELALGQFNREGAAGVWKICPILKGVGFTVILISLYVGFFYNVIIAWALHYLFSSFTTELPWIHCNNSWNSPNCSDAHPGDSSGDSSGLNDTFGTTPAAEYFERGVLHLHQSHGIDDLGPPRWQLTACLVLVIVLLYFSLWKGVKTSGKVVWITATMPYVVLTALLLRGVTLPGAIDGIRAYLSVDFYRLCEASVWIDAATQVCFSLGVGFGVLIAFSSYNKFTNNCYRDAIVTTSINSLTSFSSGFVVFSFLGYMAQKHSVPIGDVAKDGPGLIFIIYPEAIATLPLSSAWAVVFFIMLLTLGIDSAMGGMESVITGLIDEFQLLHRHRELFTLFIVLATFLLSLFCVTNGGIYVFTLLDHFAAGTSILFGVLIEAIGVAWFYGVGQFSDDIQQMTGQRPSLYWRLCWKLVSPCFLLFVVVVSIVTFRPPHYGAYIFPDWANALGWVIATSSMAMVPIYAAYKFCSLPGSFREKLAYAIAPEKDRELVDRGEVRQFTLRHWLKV
Chain of Melanocortin receptor 3 (P41968 whole entry): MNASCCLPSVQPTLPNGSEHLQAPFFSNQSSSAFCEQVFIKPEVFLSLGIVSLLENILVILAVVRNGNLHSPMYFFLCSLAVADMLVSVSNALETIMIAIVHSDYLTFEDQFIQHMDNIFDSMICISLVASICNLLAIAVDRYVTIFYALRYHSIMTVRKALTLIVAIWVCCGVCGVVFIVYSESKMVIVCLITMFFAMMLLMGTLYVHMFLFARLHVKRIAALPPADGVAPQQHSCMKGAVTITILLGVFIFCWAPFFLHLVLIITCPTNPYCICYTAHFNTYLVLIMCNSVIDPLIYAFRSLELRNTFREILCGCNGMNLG
Chain of Vasopressin V1a receptor (P37288 whole entry): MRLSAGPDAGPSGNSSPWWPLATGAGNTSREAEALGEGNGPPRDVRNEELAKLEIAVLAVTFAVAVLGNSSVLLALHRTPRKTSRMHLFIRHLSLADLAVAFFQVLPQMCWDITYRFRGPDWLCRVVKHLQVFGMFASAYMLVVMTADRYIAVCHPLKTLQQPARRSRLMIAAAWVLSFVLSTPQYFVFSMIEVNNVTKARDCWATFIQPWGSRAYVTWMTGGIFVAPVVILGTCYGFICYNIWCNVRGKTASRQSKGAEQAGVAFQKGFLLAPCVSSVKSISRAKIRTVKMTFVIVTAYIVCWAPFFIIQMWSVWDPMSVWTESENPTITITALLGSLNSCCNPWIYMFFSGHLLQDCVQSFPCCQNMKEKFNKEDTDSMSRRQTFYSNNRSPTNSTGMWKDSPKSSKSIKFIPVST
Chain of Cannabinoid receptor 1 (P21554 whole entry): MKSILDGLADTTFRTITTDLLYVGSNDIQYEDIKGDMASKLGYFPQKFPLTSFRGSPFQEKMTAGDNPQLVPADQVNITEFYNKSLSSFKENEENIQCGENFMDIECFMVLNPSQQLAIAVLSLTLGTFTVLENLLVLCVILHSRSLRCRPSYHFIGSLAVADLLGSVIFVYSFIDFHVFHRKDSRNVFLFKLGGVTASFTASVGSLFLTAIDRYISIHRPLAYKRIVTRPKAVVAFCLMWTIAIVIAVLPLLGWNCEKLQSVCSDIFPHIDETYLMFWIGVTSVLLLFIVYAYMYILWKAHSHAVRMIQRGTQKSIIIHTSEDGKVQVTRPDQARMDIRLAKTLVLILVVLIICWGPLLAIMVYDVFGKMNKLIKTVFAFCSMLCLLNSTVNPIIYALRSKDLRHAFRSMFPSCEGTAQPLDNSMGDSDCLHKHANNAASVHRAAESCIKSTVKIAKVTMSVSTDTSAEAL

One may read the IC50 as the midpoint of a concentration-inhibition curve. Usually Ki stands for a dissociation constant, usually derived from enzyme kinetics or from competition with a known ligand. As for `CCOc1nc2cccc(C(=O)O)c2n1Cc1ccc(-c2ccccc2-c2nnn[nH]2)cc1`, the IC50 entry at Melanocortin receptor 3 was “Not Active”; on Cannabinoid receptor 1, “Not Active”; in assay [1] it was “Not Active”; in assay [2] (cho-k1), “Not Active”; at B2 bradykinin receptor, “Not Active”; on Adenosine receptor A3 (read-out: IC50), 1.22 µM. In addition, the IC50 entry at Vasopressin V1a receptor is “Not Active”. For the same compound, the Ki result in assay [1] was “Not Active”; on Adenosine receptor A3, 0.69 µM.

With `O=C(O)CCCc1cccs1`, the IC50 result (on Melanocortin receptor 3; against Cannabinoid receptor 1; in assay [1]; in assay [2] (cho-k1); at B2 bradykinin receptor; against Adenosine receptor A3 (cho-k1)) was “Not Active” in each case. In addition, the IC50 entry against Vasopressin V1a receptor is “Not Active”. Besides, in assay [1], the Ki entry is on record as “Not Active”.

With `COc1ccccc1N`, the 50% inhibitory concentration (IC50) entry (on Melanocortin receptor 3; on Cannabinoid receptor 1; in assay [1]; in assay [2] (cho-k1); against B2 bradykinin receptor; on Adenosine receptor A3 (cho-k1)) was “Not Active” in each case. Also, the IC50 entry against Vasopressin V1a receptor was “Not Active”. The Ki entry in assay [1] is given as “Not Active”.

Regarding `O=C(c1ccccc1F)N1CCC(Cc2ccccc2)CC1`, the IC50 entry (at Melanocortin receptor 3; against Cannabinoid receptor 1; in assay [1]; in assay [2] (cho-k1); on B2 bradykinin receptor; against Adenosine receptor A3 (cho-k1)) was “Not Active” in each case. At Vasopressin V1a receptor, the IC50 result was “Not Active”. Further, in assay [1], the Ki entry is “Not Active”.

On to `Cc1c(O)cccc1C(=O)N[C@@H](CSc1ccccc1)[C@H](O)CN1C[C@H]2CCCC[C@H]2C[C@H]1C(=O)NC(C)(C)C`, for which the IC50 entry at Melanocortin receptor 3 was “Not Active”; on Cannabinoid receptor 1, “Not Active”; in assay [1], “Not Active”; in assay [2] (read-out: IC50), 15.5 µM; against B2 bradykinin receptor, “Not Active”; at Adenosine receptor A3 (read-out: IC50), 14.8 µM. Moreover, the IC50 result on Vasopressin V1a receptor was “Not Active”. Besides, the Ki entry in assay [1] is “Not Active”; in assay [2], 12.3 µM; on Adenosine receptor A3, 8.36 µM.

Take `CC(O)COC[C@H]1O[C@@H]2O[C@H]3[C@H](O)[C@@H](O)[C@@H](O[C@H]4[C@H](O)[C@@H](O)[C@@H](O[C@H]5[C@H](O)[C@@H](O)[C@@H](O[C@H]6[C@H](O)[C@@H](O)[C@@H](O[C@H]7[C@H](O)[C@@H](O)[C@@H](O[C@H]8[C@H](O)[C@@H](O)[C@@H](O[C@H]1[C@H](O)[C@H]2O)O[C@@H]8COCC(C)O)O[C@@H]7COCC(C)O)O[C@@H]6COCC(C)O)O[C@@H]5COCC(C)O)O[C@@H]4COCC(C)O)O[C@@H]3COCC(C)O` (stereo partly drawn) [2-HYDROXYPROPYL-BETA-CYCLODEXTRIN]: the IC50 result on Melanocortin receptor 3 was “Not Active”; against Cannabinoid receptor 1 it was “Not Active”; in assay [1] it was “Not Active”; in assay [2] (read-out: IC50), 1.69 µM; at B2 bradykinin receptor it was “Not Active”; against Adenosine receptor A3 (cho-k1), “Not Active”. Besides, the IC50 entry on Vasopressin V1a receptor is reported as “Not Active”. In addition, the values for the Ki result in assay [1] and in assay [2] were “Not Active” and 1.34 µM, respectively.

On to `NC(=O)c1cccc(N)c1` [3-AMINOBENZAMIDE], for which the IC50 entry (against Melanocortin receptor 3; against Cannabinoid receptor 1; in assay [1]; in assay [2] (cho-k1); on B2 bradykinin receptor; on Adenosine receptor A3 (cho-k1)) was “Not Active” throughout. At Vasopressin V1a receptor, the half-maximal inhibitory concentration (IC50) entry is recorded as “Not Active”. Also, the Ki entry in assay [1] is “Not Active”.

Consider `C[C@H]1O[C@H](O[C@H]2[C@H](O)[C@@H](O)[C@@H](O[C@H]3[C@H](O)[C@@H](O)C(O)O[C@@H]3CO)O[C@@H]2CO)[C@H](O)[C@@H](O)[C@@H]1N[C@H]1C=C(CO)[C@@H](O)[C@H](O)[C@H]1O` (stereo partly drawn) [ACARBOSE], for which the IC50 entry (on Melanocortin receptor 3; on Cannabinoid receptor 1; in assay [1]; in assay [2] (cho-k1); against B2 bradykinin receptor; against Adenosine receptor A3 (cho-k1)) was “Not Active” in each case. Further, on Vasopressin V1a receptor, the IC50 result was “Not Active”. The Ki result in assay [1] is reported as “Not Active”.

In the case of `CC[C@H]1[C@@H]2C[C@H]3[C@@H]4N(C)c5ccccc5[C@]45C[C@@H]([C@@H]2[C@H]5O)N3[C@@H]1O` [AJMALINE], the IC50 result (against Melanocortin receptor 3; on Cannabinoid receptor 1; in assay [1]; in assay [2] (cho-k1); against B2 bradykinin receptor; against Adenosine receptor A3 (cho-k1)) was “Not Active” throughout. For the same compound, the IC50 entry at Vasopressin V1a receptor is reported as “Not Active”. Besides, the Ki result in assay [1] is given as “Not Active”.

`NC12CC3CC(CC(C3)C1)C2` [AMANTADINE]: the IC50 entry (against Melanocortin receptor 3; against Cannabinoid receptor 1; in assay [1]; in assay [2] (cho-k1); at B2 bradykinin receptor; at Adenosine receptor A3 (cho-k1)) was “Not Active” throughout. Also, at Vasopressin V1a receptor, the IC50 entry was “Not Active”. Besides, the Ki entry in assay [1] was “Not Active”.

In the case of `NCCCNCCSP(=O)(O)O` [AMIFOSTINE], the IC50 entry (at Melanocortin receptor 3; against Cannabinoid receptor 1; in assay [1]; in assay [2] (cho-k1); against B2 bradykinin receptor; against Adenosine receptor A3 (cho-k1)) was “Not Active” in each case. At Vasopressin V1a receptor, the IC50 entry was “Not Active”. Besides, the Ki entry in assay [1] was “Not Active”.

With `CN(C)CCC=C1c2ccccc2CCc2ccccc21` [AMITRIPTYLINE], the IC50 result (at Melanocortin receptor 3; against Cannabinoid receptor 1; in assay [1]; in assay [2] (cho-k1); against B2 bradykinin receptor; against Adenosine receptor A3 (cho-k1)) was “Not Active” in each case. The IC50 entry against Vasopressin V1a receptor is reported as “Not Active”. Besides, in assay [1], the Ki entry is “Not Active”.

In the case of `CC(=O)Oc1ccccc1C(=O)O` [ASPIRIN], the IC50 entry (against Melanocortin receptor 3; at Cannabinoid receptor 1; in assay [1]; in assay [2] (cho-k1); on B2 bradykinin receptor; on Adenosine receptor A3 (cho-k1)) was “Not Active” throughout. For the same compound, the IC50 result against Vasopressin V1a receptor is given as “Not Active”. Besides, the Ki entry in assay [1] is given as “Not Active”.

For `CC(C)c1c(C(=O)Nc2ccccc2)c(-c2ccccc2)c(-c2ccc(F)cc2)n1CC[C@@H](O)C[C@@H](O)CC(=O)O` [ATORVASTATIN], the IC50 entry (against Melanocortin receptor 3; against Cannabinoid receptor 1; in assay [1]; in assay [2] (cho-k1); against B2 bradykinin receptor; against Adenosine receptor A3 (cho-k1)) was “Not Active” in each case. Also, the 50% inhibitory concentration (IC50) entry at Vasopressin V1a receptor was “Not Active”. For the same compound, the Ki entry in assay [1] is recorded as “Not Active”.

For `CC(=O)OC[C@H]1O[C@@H](n2ncc(=O)[nH]c2=O)[C@H](OC(C)=O)[C@@H]1OC(C)=O` [AZARIBINE], the IC50 result (against Melanocortin receptor 3; on Cannabinoid receptor 1; in assay [1]; in assay [2] (cho-k1); against B2 bradykinin receptor; at Adenosine receptor A3 (cho-k1)) was “Not Active” in each case. In addition, the IC50 entry against Vasopressin V1a receptor was “Not Active”. Also, in assay [1], the Ki result is recorded as “Not Active”.

Regarding `C[C@H]1[C@H](NC(=O)/C(=N\OC(C)(C)C(=O)O)c2csc(N)n2)C(=O)N1S(=O)(=O)O` [AZTREONAM], the IC50 result (against Melanocortin receptor 3; on Cannabinoid receptor 1; in assay [1]; in assay [2] (cho-k1); at B2 bradykinin receptor; on Adenosine receptor A3 (cho-k1)) was “Not Active” each time. For the same compound, the 50% inhibitory concentration (IC50) result at Vasopressin V1a receptor is given as “Not Active”. The Ki result in assay [1] is “Not Active”.

Regarding `O=C(O)CCNC(=O)c1ccc(/N=N/c2ccc(O)c(C(=O)O)c2)cc1` [BALSALAZIDE], the IC50 entry (on Melanocortin receptor 3; against Cannabinoid receptor 1; in assay [1]; in assay [2] (cho-k1); on B2 bradykinin receptor; against Adenosine receptor A3 (cho-k1)) was “Not Active” each time. In addition, at Vasopressin V1a receptor, the half-inhibitory concentration (IC50) entry was “Not Active”. The inhibition constant Ki entry in assay [1] is “Not Active”.

Consider `COc1cc(OC)c(C(=O)CCCN2CCCC2)c(OC)c1` [BUFLOMEDIL], for which the IC50 entry (against Melanocortin receptor 3; on Cannabinoid receptor 1; in assay [1]; in assay [2] (cho-k1); against B2 bradykinin receptor; on Adenosine receptor A3 (cho-k1)) was “Not Active” throughout. The IC50 entry on Vasopressin V1a receptor was “Not Active”. Also, the Ki result in assay [1] is “Not Active”.

For the compound `Cn1c(=O)c2c(ncn2C)n(C)c1=O` [CAFFEINE], the IC50 result (on Melanocortin receptor 3; against Cannabinoid receptor 1; in assay [1]; in assay [2] (cho-k1); against B2 bradykinin receptor; against Adenosine receptor A3 (cho-k1)) was “Not Active” each time. In addition, the IC50 result against Vasopressin V1a receptor was “Not Active”. Also, the Ki result in assay [1] was “Not Active”.

As for `N=C(N)c1ccc(OCCCCCOc2ccc(C(=N)N)cc2)cc1` [PENTAMIDINE], the IC50 result (at Melanocortin receptor 3; against Cannabinoid receptor 1; in assay [1]; against B2 bradykinin receptor; at Adenosine receptor A3 (cho-k1); on Vasopressin V1a receptor) was “Not Active” each time. The inhibitory constant (Ki) result in assay [1] is reported as “Not Active”.

These data come from ChEMBL document CHEMBL1909046, “DrugMatrix in vitro pharmacology data”.
